Test results published in patent publication US20230241072A1, “ANTHRACYCLINE DERIVATIVES” (ALMAC DISCOVERY LIMITED, priority 2019, published 2023).

Experiments:
[1] = tested on: MHH-ES1; test: Free payload potency in cell lines (96 h): MHH-ES1; type: cell-based, human; conditions: MHH-ES1 (Ewings sarcoma)
Experimental: (§1) The potency of the EDA-PNU159682 derivative (FIG. 1) was tested in a variety of cell lines.

[2] = tested on: MCF7; conditions: breast cancer cell line MCF7; cited from earlier work
[3] = tested on: NCI-N87; test: Free payload potency in cell lines (96 h): NCI-N87; type: cell-based; conditions: NCI-N87 (Stomach)
Experimental: as §1

[4] = tested on: PA-1; test: Free payload potency in cell lines (96 h): PA-1; type: cell-based, human; conditions: PA-1 (Ovarian)
Experimental: as §1

[5] = Mouse plasma half-life of free payloads (parallel study); type: in vitro ADME; conditions: free payload
Experimental: For both the vc-PAB-DMAE-PNU and vc-PAB-EDA-PNU conjugates liberation of some free payload could be detected as a function of time, with 217 nM PNU159682 and 114 nM of EDA-PNU159682 derivative detected after 120 h respectively. Note, in a parallel study, we calculated the mouse plasma half-lives of the free PNU159682 and EDA-PNU159682 derivatives to be 33 h and 116 h respectively.

[6] = tested on: Hs746T; test: Free payload potency in cell lines (96 h): Hs746T; type: cell-based; conditions: Hs746T (Stomach)
Experimental: as §1

[7] = tested on: PA-1 32.35 (Ovarian ROR1 −/−); test: Free payload potency in cell lines (96 h): PA-1 32.35; type: cell-based, human
Experimental: as §1

[8] = tested on: PA-1 31-J-06 (Ovarian ROR1 −/−); test: Free payload potency in cell lines (96 h): PA-1 31-J-06; type: cell-based, human
Experimental: as §1

[9] = tested on: MDA-468; test: Free payload potency in cell lines (96 h): MDA-468; type: cell-based; conditions: MDA-468 (Breast)
Experimental: as §1

[10] = tested on: A549; test: Free payload potency in cell lines (96 h): A549; type: cell-based, human; conditions: A549 (Lung)
Experimental: as §1

[11] = tested on: Mino; test: Free payload potency in cell lines (96 h): Mino; type: cell-based; conditions: Mino (MCL)
Experimental: as §1

[12] = tested on: A2780; conditions: ovarian cell line A2780; cited from earlier work
[13] = tested on: Panc-1; test: Free payload potency in cell lines (96 h): Panc-1; type: cell-based; conditions: Panc-1 (Pancreatic)
Experimental: as §1

[14] = tested on: JeKo-1; test: Free payload potency in cell lines (96 h): JeKo-1; type: cell-based; conditions: JeKo-1 (MCL)
Experimental: as §1

[15] = tested on: A427; test: Free payload potency in cell lines (96 h): A427; type: cell-based; conditions: A427 (Lung)
Experimental: as §1

[16] = tested on: ACHN; test: Free payload potency in cell lines (96 h): ACHN; type: cell-based; conditions: ACHN (Kidney)
Experimental: as §1

[17] = tested on: Kasumi-2; test: Free payload potency in cell lines (96 h): Kasumi-2; type: cell-based, human; conditions: Kasumi-2 (BCL)
Experimental: as §1

[18] = tested on: PC-9; test: Free payload potency in cell lines (96 h): PC-9; type: cell-based; conditions: PC-9 (Lung)
Experimental: as §1

[19] = tested on: MDA-231; test: Free payload potency in cell lines (96 h): MDA-231; type: cell-based; conditions: MDA-231 (Breast)
Experimental: as §1

[20] = tested on: DU145; test: Free payload potency in cell lines (96 h): DU145; type: cell-based; conditions: DU145 (Prostate)
Experimental: as §1

[21] = tested on: 697; test: Free payload potency in cell lines (96 h): 697; type: cell-based, human; conditions: 697 (BCL)
Experimental: as §1

In the case of COc1cccc2c1C(=O)c1c(O)c3c(c(O)c1C2=O)C[C@@](O)(C(=O)CO)C[C@@H]3O[C@H]1C[C@H]2[C@H](O[C@@H]3[C@@H](OC)OCCN32)[C@H](C)O1 [PNU159682], the IC50 [1] is given as 0.0034 nM, the “potency for in vitro cell killing” value [2] is given as “pico- to femtomolar range” and the IC50 [3] is given as 0.122 nM. The IC50 [4] was 0.0044 nM, the mouse plasma half-life [5] was 33 h and the IC50 [6] was 0.049 nM. For the same molecule, the IC50 [7] was 0.0014 nM, the IC50 [8] was 0.0022 nM and the IC50 [9] was 0.021 nM. The IC50 [10] was 0.013 nM, the IC50 [11] was 0.037 nM and the “potency for in vitro cell killing” value [12] was “pico- to femtomolar range”. For the same molecule, the IC50 [13] was 0.026 nM, the IC50 [14] was 0.044 nM and the IC50 [15] was 0.0098 nM. It also gave an IC50 [16] of 0.0097 nM, an IC50 [17] of 0.0024 nM and an IC50 [18] of 0.047 nM. The IC50 [19] was 0.011 nM, the IC50 [20] was 0.022 nM and the IC50 [21] was 0.008 nM.
